# Tested on: NF-κB activation
# Assay: Inhibitory activity against NF-κB activation, luciferase reporter assay under TNF-α stimulation
# Format: cell-based, human
# Settings: HepG2 cells, TNF-α 40 ng/ml, 4 hours; for inhibition at 1 µg/mL / inhibition at 10 µg/mL: Homo sapiens, read-out: Inhibitory Ratio of NF-κ B Activation(%)
# Method in brief: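 HepG2 cells transfected with firefly luciferase reporter carrying five tandem NF-κB sites, incubated 6 to 24 hours, then cultured 4 hours with TNF-α (40 ng/ml) plus test compound. Luminescent luciferase read-out; inhibition expressed relative to activity without compound.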
Compound,inhibition at 1 µg/mL (Drug Concentration 1 μg/mL),inhibition at 10 µg/mL (Drug Concentration 10 μg/mL),Inhibitory Ratio of NF-κ B Activation(%) (Drug Concentration 1 μg/mL),Inhibitory Ratio of NF-κ B Activation(%) (Drug Concentration 10 μg/mL)
"COc1ccc(C(F)(F)F)cc1NC(=O)c1cc(Br)ccc1OC(=O)N1CCOCC1 [Compound 86, 5-Bromo-N-[2-methoxy-5-(trifluoromethyl)phenyl]-2-[(morpholinocarbonyl)oxy]-benzamide]",23.4%,11.9%,–,–
"COc1cc(NC(=O)c2cc(Br)ccc2OC(=O)N2CCOCC2)cc(C(F)(F)F)c1 [Compound 87, 5-Bromo-N-[3-methoxy-5-(trifluoromethyl)phenyl]-2-[(morpholinocarbonyl)oxy]-benzamide]",29.7%,55.4%,–,–
"O=C(Nc1cc(Cl)cc(Cl)c1)c1cc(Cl)ccc1OC(=O)N1CCOCC1 [Compound 89, 5-Chloro-N-(3,5-dichlorophenyl)-2-[(morpholinocarbonyl)oxy]benzamide]",48.3%,35.9%,–,–
"CC(C)(C)C(=O)c1sc(NC(=O)c2cc(Cl)ccc2OC(=O)N2CCOCC2)nc1C(C)(C)C [Compound 92, 5-Chloro-N-{4-[(1,1-dimethyl)ethyl]-5-[(2,2-dimethyl)propionyl]thiazol-2-yl}-2-[(morpholinocarbonyl)oxy]benzamide]",86.3%,93.9%,–,–
COc1ccc(Cl)cc1C(=O)Nc1cc(C(F)(F)F)cc(C(F)(F)F)c1 [Compound 93],–,–,44.3%,24.0%
COc1ccc(C(C)(C)C)cc1C(=O)Nc1cc(C(F)(F)F)cc(C(F)(F)F)c1 [Compound 94],–,–,56.1%,51.7%
CCOc1ccc(Cl)cc1C(=O)Nc1cc(C(F)(F)F)cc(C(F)(F)F)c1 [Compound 95],–,–,31.3%,71.4%
CC(C)Oc1ccc(Cl)cc1C(=O)Nc1cc(C(F)(F)F)cc(C(F)(F)F)c1 [Compound 96],–,–,54.1%,96.1%
COCOc1ccc(Cl)cc1C(=O)Nc1cc(C(F)(F)F)cc(C(F)(F)F)c1 [Compound 97],–,–,21.6%,94.4%
CC(=O)OCOc1ccc(Cl)cc1C(=O)Nc1cc(C(F)(F)F)cc(C(F)(F)F)c1 [Compound 98],–,–,94.9%,96.6%
CC(C)(C)C(=O)OCOc1ccc(Cl)cc1C(=O)Nc1cc(C(F)(F)F)cc(C(F)(F)F)c1 [Compound 99],–,–,92.3%,94.7%
CCOC(=O)OC(C)Oc1ccc(Cl)cc1C(=O)Nc1cc(C(F)(F)F)cc(C(F)(F)F)c1 (centres unmarked) [Compound 100],–,–,96.1%,98.5%
"O=C(Nc1cc(C(F)(F)F)cc(C(F)(F)F)c1)c1cc(Cl)ccc1OCOC(=O)N1CCCCC1 [Compound 101, 5-Chloro-2-[(piperidinocarbonyl)oxy]methoxy-N-[3,5-bis(trifluoromethyl)phenyl]-benzamide]",41%,42.8%,–,–
"O=C(Nc1cc(C(F)(F)F)cc(C(F)(F)F)c1)c1cc(Cl)ccc1OCOC(=O)N1CCOCC1 [Compound 102, 5-Chloro-2-[(morpholinocarbonyl)oxy]methoxy-N-[3,5-bis(trifluoromethyl)phenyl]-benzamide]",39.1%,70%,–,–
"CCOC(=O)C1CCN(C(=O)OCOc2ccc(Cl)cc2C(=O)Nc2cc(C(F)(F)F)cc(C(F)(F)F)c2)CC1 [Compound 103, 5-Chloro-2-({[4-(ethoxycarbonyl)piperidin-1-yl]carbonyl}oxy)methoxy-N-[3,5-bis(trifluoromethyl)phenyl]benzamide]",40.4%,45.9%,–,–
O=C(Nc1cc(C(F)(F)F)cc(C(F)(F)F)c1)c1cc(Cl)ccc1OCOC(=O)N1CCC(C(=O)O)CC1 [Compound 104],–,–,48.4%,58.8%
"CCOC(=O)CN(CC(=O)OCC)C(=O)OCOc1ccc(Cl)cc1C(=O)Nc1cc(C(F)(F)F)cc(C(F)(F)F)c1 [Compound 105, 2-({N,N-bis[(ethoxycarbonyl)methyl]carbamoyl}oxy)methoxy-5-chloro-N-[3,5-bis(trifluoromethyl)phenyl]benzamide]",71.8%,56%,–,–
O=C(O)CN(CC(=O)O)C(=O)OCOc1ccc(Cl)cc1C(=O)Nc1cc(C(F)(F)F)cc(C(F)(F)F)c1 [Compound 106],–,–,61.0%,83.5%
O=C(Nc1cc(C(F)(F)F)cc(C(F)(F)F)c1)c1cc(Cl)ccc1OCCO [Compound 107],–,–,47.4%,52.1%
O=C(O)COc1ccc(Cl)cc1C(=O)Nc1cc(C(F)(F)F)cc(C(F)(F)F)c1 [Compound 109],–,–,21.0%,95.9%
"O=C(COc1ccc(Cl)cc1C(=O)Nc1cc(C(F)(F)F)cc(C(F)(F)F)c1)OCc1ccccc1 [Compound 110, 2-[(benzyloxy)carbonyl]methoxy-5-chloro-N-[3,5-bis(trifluoromethyl)phenyl]-benzamide]",38.5%,39.2%,–,–

Compound,inhibition at 1 µg/mL (Drug Concentration 1 μg/mL),inhibition at 10 µg/mL (Drug Concentration 10 μg/mL),Inhibitory Ratio of NF-κ B Activation(%) (Drug Concentration 1 μg/mL),Inhibitory Ratio of NF-κ B Activation(%) (Drug Concentration 10 μg/mL)
O=C(Nc1cc(C(F)(F)F)cc(C(F)(F)F)c1)c1cc(Cl)ccc1OCN1C(=O)c2ccccc2C1=O [Compound 111],–,–,94.3%,96.0%
CC(=O)OC[C@H]1O[C@@H](Oc2ccc(Cl)cc2C(=O)Nc2cc(C(F)(F)F)cc(C(F)(F)F)c2)[C@H](OC(C)=O)[C@@H](OC(C)=O)[C@@H]1OC(C)=O [Compound 112],–,–,47.2%,49.5%
O=c1oc2ccc(Cl)cc2c(=O)n1-c1cc(C(F)(F)F)cc(C(F)(F)F)c1 [Compound 113],96.8%,97.9%,–,–
O=C1CCC(=O)N(c2cc(C(F)(F)F)cc(C(F)(F)F)c2)C(=O)c2cc(Cl)ccc2O1 [Compound 114],97.2%,98.5%,–,–
"COC(=O)C1Oc2ccc(Cl)cc2C(=O)N1c1cc(C(F)(F)F)cc(C(F)(F)F)c1 (centres unmarked) [Compound 115, 6-chloro-3,4-dihydro-4-oxo-3-[3,5-bis(trifluoromethyl)phenyl]-2H-1,3-benzoxazine-2-carboxylic acid methyl ester]",41.8%,92.2%,–,–
O=C(O)C1Oc2ccc(Cl)cc2C(=O)N1c1cc(C(F)(F)F)cc(C(F)(F)F)c1 (centres unmarked) [Compound 116],35.1%,20.1%,–,–
COC(=O)CC1(C(=O)OC)Oc2ccc(Cl)cc2C(=O)N1c1cc(C(F)(F)F)cc(C(F)(F)F)c1 (centres unmarked) [Compound 117],34.8%,56.7%,–,–
"CCC(C)(C)c1ccc(Oc2ccccc2)c(-n2c(=O)oc3ccc(Cl)cc3c2=O)c1 [Compound 118, 6-Chloro-3-[5-(1,1-dimethyl)propyl-2-phenoxyphenyl]-3,4-dihydro-2H-1,3-benzoxazine-2,4-dione]",94%,97.4%,–,–
O=C(Nc1ccc(-c2ccccc2)cc1)c1cc(C(F)(F)F)ccc1OC(=O)N1CCOCC1 [Compound 119],–,–,>99.9%,>99.9%
O=C(Nc1cc(C(F)(F)F)ccc1C(F)(F)F)c1cc(Cl)ccc1OP(=O)([O-])O.[Na+] [Compound 122],–,–,>99.9%,>99.9%
O=C(Nc1cc(C(F)(F)F)ccc1Cl)c1cc(Cl)ccc1OP(=O)([O-])O.[Na+] [Compound 125],–,–,>99.9%,>99.9%
CC(C)(C)C(=O)c1sc(NC(=O)c2cc(Cl)ccc2OP(=O)([O-])O)nc1C(C)(C)C.[Na+] [Compound 128],–,–,>99.9%,>99.9%
"O=C(Nc1cc(C(F)(F)F)ccc1C(F)(F)F)c1cc(Br)cc(Br)c1OC(=O)N1CCOCC1 [Compound 130, 3,5-Dibromo-2-(morpholinocarbonyl)oxy-N-[2,5-bis(trifluoromethyl)phenyl]-benzamide]",18.9%,–,–,–
O=C(Oc1ccccc1C(=O)Nc1cc(C(F)(F)F)ccc1C(F)(F)F)c1ccccc1O [Compound 131],–,–,>99.9%,–
O=C(Nc1cc(C(F)(F)F)ccc1C(F)(F)F)c1ccccc1OC(=O)N1CCOCC1 [Compound 132],–,–,32.3%,–
O=C(Nc1cc(C(F)(F)F)ccc1Cl)c1cc(Br)ccc1OP(=O)([O-])O.[Na+] [Compound 136],–,–,>99.9%,–
CC(C)(C)c1ccc(OP(=O)([O-])O)c(C(=O)Nc2cc(C(F)(F)F)cc(C(F)(F)F)c2)c1.[Na+] [Compound 139],–,–,64.3%,–
O=C(Nc1cc(C(F)(F)F)ccc1C(F)(F)F)c1cc(Br)ccc1OP(=O)([O-])O.[Na+] [Compound 142],–,–,>99.9%,–
CC(C)(C)c1cc(NC(=O)c2cc(Br)ccc2OP(=O)([O-])O)cc(C(C)(C)C)c1.[Na+] [Compound 145],–,–,93.1%,–
COc1cc(NC(=O)c2cc(Br)ccc2OP(=O)([O-])O)cc(C(F)(F)F)c1.[Na+] [Compound 149],–,–,>99.9%,–
